The values below come from patent US10988440B2, “FTO inhibitors” (National Institute of Biological Sciences, Beijing, priority 2015, dated 2021).

pIC50: −log10 of the molar value. Read-outs that look alike come from different tables or passages of the source. Bounds are passed on as bounds.

Usually inhibition stands for the drop in the measured response relative to a control, in per cent.

The target in data set [1] is T1, COMT enzyme (Homo sapiens, UniProt P21964).
T1 construct: COMT (μM); other: at 200 nM; other: at 50 nM; The reaction system contains 1U COMT enzyme, test article, 4 μM Esculetin, 0.6 mM AdoMet, 50 mM K3PO4, and 10 mM MgCl2
T1 sequence (P21964 1-271): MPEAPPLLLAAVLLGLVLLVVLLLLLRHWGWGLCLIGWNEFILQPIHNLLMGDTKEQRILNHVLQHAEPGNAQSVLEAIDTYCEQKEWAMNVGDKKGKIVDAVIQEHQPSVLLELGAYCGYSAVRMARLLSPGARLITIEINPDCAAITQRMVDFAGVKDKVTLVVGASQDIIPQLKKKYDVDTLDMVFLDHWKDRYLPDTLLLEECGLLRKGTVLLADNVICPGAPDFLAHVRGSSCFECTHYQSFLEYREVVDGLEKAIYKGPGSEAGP
Kind of data set: COMT inhibition assay (reaction kinetic model, esculetin fluorescence). It is filed as biochemical. As to conditions: for inhibition at 0.05 µM: read-out: COMT inhibition at 50 nM; for inhibition at 0.2 µM: read-out: COMT inhibition at 200 nM.

In data set [2] the target is FTO (Homo sapiens, UniProt Q9C0B1). Kind of data set: demethylation reaction catalyzed by FTO (enzymatic inhibition, HPLC-MS/MS of N6-mA and A). It is filed as biochemical.
Chain of FTO (Q9C0B1 whole entry): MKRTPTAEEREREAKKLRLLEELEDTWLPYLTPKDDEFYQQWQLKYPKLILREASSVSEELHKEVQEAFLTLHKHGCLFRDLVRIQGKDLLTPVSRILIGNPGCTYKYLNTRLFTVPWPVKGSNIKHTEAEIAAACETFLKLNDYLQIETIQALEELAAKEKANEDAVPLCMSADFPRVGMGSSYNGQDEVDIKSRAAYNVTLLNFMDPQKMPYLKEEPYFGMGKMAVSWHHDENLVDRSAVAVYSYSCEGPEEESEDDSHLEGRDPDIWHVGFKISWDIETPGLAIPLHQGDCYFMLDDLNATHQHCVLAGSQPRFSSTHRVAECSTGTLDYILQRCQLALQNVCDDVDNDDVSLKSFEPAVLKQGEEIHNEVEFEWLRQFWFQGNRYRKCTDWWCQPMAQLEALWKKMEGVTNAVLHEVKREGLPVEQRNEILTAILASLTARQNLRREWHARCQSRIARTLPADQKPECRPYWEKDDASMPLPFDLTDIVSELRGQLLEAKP
A short description of data set [3]: Rat liver microsome stability assay. It is filed as in vitro ADME. The note with it: liver microsomes, pH 7.4, rat liver microsome 1 mg/ml, test compound 2 μM, NADPH 1 mM, 37° C.; for microsomal CLint at 1 h, 2 µM: read-out: Rat Liver Microsome CLint (μL/min/mg protein); for half-life at 1 h, 2 µM: read-out: Rat Liver Microsome T½. For orientation: Liver microsomes are a subcellular fraction often used to study metabolism.

Setting [4] is: exemplary IC50 data of representative compounds, read-out: Enzymatic inhibition (IC50).
The mark [5] stands for this setting: selectivity table, read-out: FTO.

Consider `N#C/C(=C(/O)c1cc(O)c(O)c([N+](=O)[O-])c1)c1ccccn1` [Compound 351, 3-(3,4-dihydroxy-5-nitrophenyl)-3-oxo-2-(pyridin-2-yl)propanenitrile], for which, in data set [1], the inhibition at 0.05 µM came out at 33% and the inhibition at 0.2 µM worked out at 80%. Moreover, in data set [2] (setting [4]), the pIC50 is more than 6.00. Further, the pIC50 in data set [2] (setting [5]) was 6.12. Also, in data set [3], the microsomal CLint at 1 h, 2 µM came to 9 µL/min/mg and the half-life at 1 h, 2 µM came to 77 min.

Regarding `N#CC(=Cc1cc(O)c(O)c([N+](=O)[O-])c1)c1ccccn1` (stereo in doubt) [Compound 315, (E)-3-(3,4-dihydroxy-5-nitrophenyl)-2-(pyridin-2-yl)acrylonitrile], in data set [1], the inhibition at 0.05 µM came to 19% and the inhibition at 0.2 µM was 70%. In data set [2] (setting [4]), the pIC50 is approximately 6.00. Besides, the pIC50 in data set [2] (setting [5]) is 6.00. For the same compound, in data set [3], the microsomal CLint at 1 h, 2 µM was 310 µL/min/mg and the half-life at 1 h, 2 µM was found to be 2.24 min.

Turning to `CCN(CC)C(=O)/C(C#N)=C/c1cc(O)c(O)c([N+](=O)[O-])c1` [Entacapone, entacapone, reference compound], in data set [3], the microsomal CLint at 1 h, 2 µM came out at 17.7 µL/min/mg and the half-life at 1 h, 2 µM is 39.2 min.

Turning to `N#C/C(C(=O)N1CCCCC1)=C(/N)c1cc(O)c(O)c([N+](=O)[O-])c1` [Compound 661N, 3-amino-3-(3,4-dihydroxy-5-nitrophenyl)-2-(piperidine-1-carbonyl)acrylonitrile], in data set [1], the inhibition at 0.05 µM amounted to 35% and the inhibition at 0.2 µM was 64%. Moreover, the pIC50 in data set [2] (setting [4]) was more than 6.00. In addition, the pIC50 in data set [2] (setting [5]) was 6.12. In addition, in data set [3], the microsomal CLint at 1 h, 2 µM worked out at 10.3 µL/min/mg and the half-life at 1 h, 2 µM amounted to 67.3 min.

As to `N#C/C(C(=O)N1CCCCC1)=C(/O)c1cc(O)c(O)c([N+](=O)[O-])c1` [Compound 661, (Z)-3-(3,4-dihydroxy-5-nitrophenyl)-3-hydroxy-2-(piperidine-1-carbonyl)acrylonitrile], in data set [1], the inhibition at 0.05 µM was 12% and the inhibition at 0.2 µM was 26%. In addition, the pIC50 in data set [2] (setting [4]) is approximately 6.00. Further, the pIC50 in data set [2] (setting [5]) is 6.00. For the same compound, in data set [3], the microsomal CLint at 1 h, 2 µM was determined as 2.2 µL/min/mg and the half-life at 1 h, 2 µM was 315 min.

In the case of `CCN(CC)C(=O)/C(C#N)=C(\O)c1cc(O)c(O)c([N+](=O)[O-])c1` [Compound 347, 2-cyano-3-(3,4-dihydroxy-5-nitrophenyl)-N,N-diethyl-3-oxopropanamide], in data set [1], the pIC50 is 6.26. Further, in data set [3], the microsomal CLint at 1 h, 2 µM worked out at 0.1 µL/min/mg and the half-life at 1 h, 2 µM worked out at 6930 min.

In the case of `N#C/C(=C\c1cc(O)c(O)c([N+](=O)[O-])c1)c1ncns1` [Compound 656, (E)-3-(3,4-dihydroxy-5-nitrophenyl)-2-(1,2,4-thiadiazol-5-yl)acrylonitrile], the pIC50 in data set [2] (setting [4]) was more than 6.00.

For `CCNC(=O)/C(C#N)=C/c1cc(O)c(O)c([N+](=O)[O-])c1` [Compound 684], in data set [2] (setting [4]), the pIC50 is less than 6.00.

For the compound `N#C/C(C(=O)N1CCC1)=C(/N)c1cc(O)c(O)c([N+](=O)[O-])c1` [Compound 701N, (Z)-3-amino-2-(azetidine-1-carbonyl)-3-(3,4-dihydroxy-5-nitrophenyl)acrylonitrile], the pIC50 in data set [2] (setting [4]) was less than 6.00.

Take `N#C/C(=C(/O)c1cc(O)c(O)c([N+](=O)[O-])c1)c1ccncn1` [Compound 525, (E)-3-(3,4-dihydroxy-5-nitrophenyl)-3-hydroxy-2-(pyrimidin-4-yl)acrylonitrile]: in data set [1], the inhibition at 0.05 µM is 39% and the inhibition at 0.2 µM stood at 74%. Further, the pIC50 in data set [2] (setting [4]) was more than 6.00. Further, in data set [2] (setting [5]), the pIC50 was 6.30. In data set [3], the microsomal CLint at 1 h, 2 µM was determined as 10.9 µL/min/mg and the half-life at 1 h, 2 µM is 63.6 min.

As for `N#C/C(=C\c1cc(O)c(O)c([N+](=O)[O-])c1)c1nccs1` [Compound 390], in data set [1], the inhibition at 0.05 µM stood at 12% and the inhibition at 0.2 µM came out at 36%. Besides, the pIC50 in data set [2] (setting [4]) was approximately 6.00. For the same compound, the pIC50 in data set [2] (setting [5]) is 6.00. Besides, in data set [3], the microsomal CLint at 1 h, 2 µM turned out to be 266 µL/min/mg and the half-life at 1 h, 2 µM turned out to be 2.61 min.

Consider `N#C/C(=C\c1cc(O)c(O)c([N+](=O)[O-])c1)C(=O)Nc1nc2ccccc2s1` [Compound 333], for which the pIC50 in data set [2] (setting [4]) was less than 6.00.

In the case of `CCNC(=O)/C(C#N)=C(\O)c1cc(O)c(O)c([N+](=O)[O-])c1` [Compound 691, (Z)-2-cyano-3-(3,4-dihydroxy-5-nitrophenyl)-N-ethyl-3-hydroxyacrylamide], in data set [2] (setting [4]), the pIC50 was more than 6.00.

Consider `N#C/C(=C\c1cc(O)c(O)c([N+](=O)[O-])c1)C(=O)N1CCC1` [Compound 687], for which the pIC50 was 7.48 in data set [1], more than 6.00 in data set [2] (setting [4]) and 6.00 in data set [2] (setting [5]). Moreover, the microsomal CLint at 1 h, 2 µM in data set [3] was found to be 284 µL/min/mg. Further, the half-life at 1 h, 2 µM in data set [3] was determined as 2.44 min.

Turning to `N#C/C(=C\c1cc(O)c(O)c([N+](=O)[O-])c1)C(=O)NO` [Compound 664], in data set [2] (setting [4]), the pIC50 was approximately 6.00.

With `N#C/C(=C(/O)c1cc(O)c(O)c([N+](=O)[O-])c1)c1cnc(C(=O)O)cn1` [Compound 697, (E)-5-(1-cyano-2-(3,4-dihydroxy-5-nitrophenyl)-2-hydroxyvinyl) pyrazine-2-carboxylic Acid], in data set [1], the inhibition at 0.05 µM was -3% and the inhibition at 0.2 µM was 33%. In data set [2] (setting [4]), the pIC50 is more than 6.00. Moreover, the pIC50 in data set [2] (setting [5]) is 6.12. Further, in data set [3], the microsomal CLint at 1 h, 2 µM amounted to 1.1 µL/min/mg and the half-life at 1 h, 2 µM was determined as 630 min.

Turning to `N#C/C(=C\c1cc(O)c(O)c([N+](=O)[O-])c1)C(=O)N1CCOCC1` [Compound 382], the pIC50 in data set [2] (setting [4]) was less than 6.00.

In the case of `COc1cc(/C(O)=C(\C#N)C(=O)NCc2ccncn2)cc([N+](=O)[O-])c1O` [Compound 674], the pIC50 in data set [2] (setting [4]) was less than 6.00.

For `N#C/C(=C\c1cc(O)c(O)c([N+](=O)[O-])c1)C(=O)N[C@@H](CO)C(=O)O` [Compound 693, (S,E)-2-(2-cyano-3-(3,4-dihydroxy-5-nitrophenyl)acrylamido)-3-hydroxypropanoic Acid], the pIC50 in data set [2] (setting [4]) was approximately 6.00.

For `N#C/C(=C\c1cc(O)c(O)c([N+](=O)[O-])c1)C(=O)c1cscn1` [Compound 698], in data set [2] (setting [4]), the pIC50 was less than 6.00.

As for `N#C/C(=C(/O)c1cc(O)c(O)c([N+](=O)[O-])c1)c1nccs1` [Compound 503, 3-(3,4-dihydroxy-5-nitrophenyl)-3-oxo-2-(thiazol-2-yl)propanenitrile], in data set [1], the inhibition at 0.05 µM was 9% and the inhibition at 0.2 µM is 24%. Moreover, the pIC50 in data set [2] (setting [4]) is approximately 6.00. Further, the pIC50 in data set [2] (setting [5]) is 5.82. Besides, in data set [3], the microsomal CLint at 1 h, 2 µM came out at 0.5 µL/min/mg and the half-life at 1 h, 2 µM amounted to 1390 min.

As for `N#CC(=Cc1cc(O)c(O)c([N+](=O)[O-])c1)c1cccnn1` (stereo in doubt) [Compound 505, (E)-3-(3,4-dihydroxy-5-nitrophenyl)-2-(pyridazin-3-yl)acrylonitrile], the pIC50 in data set [2] (setting [4]) is more than 6.00.

For the compound `N#C/C(C(=O)NCc1ccncn1)=C(/O)c1cc(O)c(O)c([N+](=O)[O-])c1` [Compound 673, (Z)-2-cyano-3-(3,4-dihydroxy-5-nitrophenyl)-3-hydroxy-N-(pyrimidin-4-ylmethyl)acrylamide], in data set [2] (setting [4]), the pIC50 is more than 6.00.

`N#C/C(=C\c1cc(O)c(O)c([N+](=O)[O-])c1)C(=O)NCc1ccccc1` [Compound 366]: the pIC50 in data set [2] (setting [4]) was less than 6.00.

As for `N#C/C(=C\c1cc(O)c(O)c([N+](=O)[O-])c1)c1nc(C(=O)O)cs1` [Compound 666, (E)-2-(1-cyano-2-(3,4-dihydroxy-5-nitrophenyl)vinyl)thiazole-4-carboxylic Acid], the pIC50 in data set [2] (setting [4]) is more than 6.00.

On to `N#C/C(C(=O)NC1CC1)=C(/O)c1cc(O)c(O)c([N+](=O)[O-])c1` [Compound 692, (Z)-2-cyano-N-cyclopropyl-3-(3,4-dihydroxy-5-nitrophenyl)-3-hydroxyacrylamide], for which the pIC50 in data set [2] (setting [4]) was more than 6.00.

On to `N#C/C(=C\c1cc(O)c(O)c([N+](=O)[O-])c1)C(=O)N1CCC[C@H]1C(=O)O` [Compound 702, (S,E)-1-(2-cyano-3-(3,4-dihydroxy-5-nitrophenyl)acryloyl)pyrrolidine-2-carboxylic Acid], for which the pIC50 in data set [2] (setting [4]) is approximately 6.00.

As to `N#C/C(=C\c1cc(O)c(O)c([N+](=O)[O-])c1)C(=O)NC1COC1` [Compound 713], the pIC50 in data set [2] (setting [4]) was more than 6.00.

Regarding `N#C/C(=C\c1cc(O)c(O)c([N+](=O)[O-])c1)C(=O)N1CCCCC1` [Compound 371, (E)-3-(3,4-dihydroxy-5-nitrophenyl)-2-(piperidine-1-carbonyl)acrylonitrile], in data set [1], the inhibition at 0.05 µM is 33% and the inhibition at 0.2 µM was determined as 71%. For the same compound, in data set [3], the microsomal CLint at 1 h, 2 µM was found to be 43 µL/min/mg and the half-life at 1 h, 2 µM was found to be 16.1 min.

With `N#CC(=Cc1cc(O)c(O)c([N+](=O)[O-])c1)c1ccc[n+]([O-])c1` (stereo in doubt) [Compound 518, (E)-3-(1-cyano-2-(3,4-dihydroxy-5-nitrophenyl)vinyl)pyridine 1-oxide], the pIC50 in data set [2] (setting [4]) was less than 6.00.

For `N#C/C(C(=O)NC1CC1)=C(/N)c1cc(O)c(O)c([N+](=O)[O-])c1` [Compound 692N, (Z)-3-amino-2-cyano-N-cyclopropyl-3-(3,4-dihydroxy-5-nitrophenyl)acrylamide], the pIC50 in data set [2] (setting [4]) was less than 6.00.
